Experimental data reported in patent US20260201008A1, “SECRETIN-DERIVED GLP1R SELECTIVE AGONISTS” (GUBRA A/S, priority 2023, published 2026).
Read-outs that look alike come from different tables or passages of the source. Numbered stars: 1 amine (or outer) side, 2 acyl side, 3 side chain; on linkers, the order of the positions; unused ones are H or OH. Square brackets hold non-standard residues; d marks the D form. Side chains are listed from the residue outwards. Peptide text beside a SMILES is read from it. * marks the point of attachment. C20 diacid = O=C(O)CCCCCCCCCCCCCCCCCCC(=O)*; γGlu = O=C(O)[C@H](CCC(=O)[*:2])N[*:1]; AEEA = NCCOCCOCC(=O)O; Aib = CC(C)(N)C(=O)O

Legend:
SCTR = SCTR (Homo sapiens, UniProt P47872); assay: hSCTR potency, cAMP accumulation in CHO-K1 cells stably overexpressing hSCTR; assay type: cell-based; set-up: alternatively Euroscreen ES-712-AF; FAST-0161L; host or cells: CHO-K1; details: cAMP accumulation
Chain of SCTR (P47872 23-440): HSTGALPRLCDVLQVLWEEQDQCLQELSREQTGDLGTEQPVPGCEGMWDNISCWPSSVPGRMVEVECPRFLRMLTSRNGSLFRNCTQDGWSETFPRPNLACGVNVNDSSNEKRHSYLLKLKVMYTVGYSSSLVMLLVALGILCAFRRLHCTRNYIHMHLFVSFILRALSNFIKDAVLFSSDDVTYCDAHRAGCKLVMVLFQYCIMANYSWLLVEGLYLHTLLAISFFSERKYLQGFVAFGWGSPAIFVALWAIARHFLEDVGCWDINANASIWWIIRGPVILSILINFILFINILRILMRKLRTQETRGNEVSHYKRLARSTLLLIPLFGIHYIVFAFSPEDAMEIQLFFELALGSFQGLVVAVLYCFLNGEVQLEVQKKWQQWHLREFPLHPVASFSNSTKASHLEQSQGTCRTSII
In short: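 Cells plated at 2000/well in DPBS with 0.05% casein and 0.5 mM IBMX, stimulated 30 min at room temperature with graded compound doses; human secretin as positive control. cAMP read by TR-FRET after 1 h. Purified peptides tested at 11 3-fold dilutions, n=2; EC50 by variable-slope sigmoid fit.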

[1] = Fibril formation of crude library peptides (Thioflavin T); assay type: physicochemical; set-up: key: average ThT fluorescence emission at 480 nm (ex 450 nm), raw units; details: Physical stability of peptides
In short: (§1)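 Crude peptides at 267 μM in 50 mM sodium acetate pH 4.0 or 50 mM sodium phosphate pH 7.0, pre-incubated 1-2 h at room temperature, then 4 μM final ThT added. Turbidity read first as A600. ThT fluorescence (ex 450/em 480 nm) read every 10 min for 72 h at 40° C, with 5 min shaking before each read; fibril formation = average emission.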

GLP1R = GLP1R (Homo sapiens, UniProt P43220); assay: hGLP1R potency, cAMP accumulation in CHO-K1 cells stably overexpressing hGLP1R; assay type: cell-based; set-up: host or cells: CHO-K1; details: for EC50: cAMP accumulation; for SCTR EC50/GLP1R EC50 ratio: cAMP accumulation in CHO-K1 cells; for Selectivity: SCTR EC50/GLP1R EC50 ratio
Chain of GLP1R (P43220 24-463): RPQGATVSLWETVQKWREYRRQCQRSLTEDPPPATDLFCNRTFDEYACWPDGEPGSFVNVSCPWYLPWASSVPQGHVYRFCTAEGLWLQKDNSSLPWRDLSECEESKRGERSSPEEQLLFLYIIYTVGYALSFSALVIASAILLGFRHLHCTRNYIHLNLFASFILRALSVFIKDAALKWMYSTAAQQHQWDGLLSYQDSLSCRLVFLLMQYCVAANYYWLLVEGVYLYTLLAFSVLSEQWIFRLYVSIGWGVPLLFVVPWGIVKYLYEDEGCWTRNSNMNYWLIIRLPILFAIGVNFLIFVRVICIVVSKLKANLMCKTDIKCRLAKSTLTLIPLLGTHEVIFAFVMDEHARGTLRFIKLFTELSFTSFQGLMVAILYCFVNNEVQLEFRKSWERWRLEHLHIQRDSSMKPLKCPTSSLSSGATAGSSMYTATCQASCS
In short: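 CHO-K1 cells stably expressing hGLP1R (2000/well) in DPBS with 0.05% casein and 0.5 mM IBMX were stimulated 30 min at room temperature with graded compound doses; human GLP-1(7-36) served as positive control. cAMP was read by HTRF after 1 h; EC50 came from variable-slope sigmoid fits (purified peptides: 11-point 3-fold, n=2).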

[2] = Turbidity of crude library peptides (absorbance at 600 nm); assay type: physicochemical; details: Physical stability of peptides
In short: as §1

[3] = CHO-K1 cells overexpressing hSCTR, read-out: hSCTR pEC50 (converted)
[4] = CHO-K1 cells overexpressing hGLP1R, read-out: hGLP1R pEC50 (converted)
[5] = selectivity for hGLP1R over hSCTR
[6] = CHO-K1 cells overexpressing hSCTR, read-out: pEC50 hSCTR (converted)
[7] = CHO-K1 cells overexpressing hGLP1R, read-out: pEC50 hGLPR1 (converted)
[8] = CHO-K1 cells stably overexpressing hSCTR, read-out: hSCTR potency (pEC50) (converted)
[9] = CHO-K1 cells stably overexpressing hGLP1R, read-out: hGLP1R potency (pEC50) (converted)
[10] = selectivity ratio, hSCTR vs hGLP1R

Row | SMILES | EC50 (SCTR; [3]) | Fibril formation [1] | EC50 (GLP1R; [4]) | SCTR EC50/GLP1R EC50 ratio (GLP1R; [5]) | Turbidity (pH 7) [2] | EC50 (SCTR; [6]) | Selectivity (GLP1R) | EC50 (GLP1R; [7]) | EC50 (SCTR; [8]) | EC50 (GLP1R; [9]) | SCTR EC50/GLP1R EC50 ratio (GLP1R; [10])
1 | CC(C)C[C@H](NC(=O)[C@H](Cc1ccccc1)NC(=O)[C@H](CCCNC(=N)N)NC(=O)[C@H](CCC(N)=O)NC(=O)[C@H](CC(C)C)NC(=O)C(C)(C)NC(=O)[C@H](C)NC(=O)[C@H](CCC(=O)O)NC(=O)[C@H](CCC(=O)O)NC(=O)[C@H](CCCCNC(=O)COCCOCCNC(=O)COCCOCCNC(=O)CC[C@H](NC(=O)CCCCCCCCCCCCCCCCCCC(=O)O)C(=O)O)NC(=O)[C@H](CC(C)C)NC(=O)[C@H](CC(N)=O)NC(=O)[C@H](CO)NC(=O)[C@@H](NC(=O)[C@H](CC(=O)O)NC(=O)[C@H](CO)NC(=O)[C@@H](NC(=O)[C@H](Cc1ccccc1)NC(=O)[C@@H](NC(=O)CNC(=O)[C@H](CCC(=O)O)NC(=O)C(C)(C)NC(=O)[C@@H](N)Cc1c[nH]cn1)[C@@H](C)O)[C@@H](C)O)C(C)C)C(=O)N[C@@H](CCC(=O)O)C(=O)N[C@@H](Cc1c[nH]cn1)C(=O)N[C@@H](CC(C)C)C(=O)N[C@H](C(N)=O)C(C)C [compound 136] (H-H[Aib]EGTFTSDVSNLK([AEEA-AEEA-γGlu-C20 diacid])EEA[Aib]LQRFLEHLV-NH2) | 12.6 nM | 3353 | 0.0126 nM | 857 | 0.08 | – | – | – | – | – | –
2 | CC(C)C[C@H](NC(=O)[C@H](Cc1ccccc1)NC(=O)[C@H](CCCNC(=N)N)NC(=O)[C@H](CCC(N)=O)NC(=O)[C@H](CCC(=O)O)NC(=O)[C@H](C)NC(=O)[C@H](C)NC(=O)[C@H](Cc1ccccc1)NC(=O)[C@H](CCC(=O)O)NC(=O)[C@H](CCCCNC(=O)COCCOCCNC(=O)COCCOCCNC(=O)CC[C@H](NC(=O)CCCCCCCCCCCCCCCCCCC(=O)O)C(=O)O)NC(=O)[C@H](CC(C)C)NC(=O)[C@H](CCC(=O)O)NC(=O)[C@H](CO)NC(=O)[C@@H](NC(=O)[C@H](CC(=O)O)NC(=O)[C@H](CO)NC(=O)[C@@H](NC(=O)[C@H](Cc1ccccc1)NC(=O)[C@@H](NC(=O)CNC(=O)[C@H](CCC(=O)O)NC(=O)C(C)(C)NC(=O)[C@@H](N)Cc1c[nH]cn1)[C@@H](C)O)[C@@H](C)O)C(C)C)C(=O)N[C@@H](CCC(=O)O)C(=O)N[C@@H](Cc1c[nH]cn1)C(=O)N[C@@H](CC(C)C)C(=O)N[C@H](C(N)=O)C(C)C [compound 31] (H-H[Aib]EGTFTSDVSELK([AEEA-AEEA-γGlu-C20 diacid])EFAAEQRFLEHLV-NH2) | – | 10417 | – | – | 0.08 | 6310 nM | 144477 | 0.0398 nM | – | – | –
3 | CC[C@H](C)[C@H](NC(=O)[C@H](Cc1ccccc1)NC(=O)[C@H](CCCNC(=N)N)NC(=O)[C@H](CCC(N)=O)NC(=O)[C@H](CC(C)C)NC(=O)[C@H](C)NC(=O)[C@H](C)NC(=O)CNC(=O)[C@H](CCC(=O)O)NC(=O)[C@H](CC(C)C)NC(=O)[C@H](CC(C)C)NC(=O)[C@H](Cc1ccccc1)NC(=O)[C@H](CO)NC(=O)[C@H](Cc1c[nH]c2ccccc12)NC(=O)[C@H](CC(=O)O)NC(=O)[C@H](CO)NC(=O)[C@@H](NC(=O)[C@H](Cc1ccccc1)NC(=O)[C@@H](NC(=O)CNC(=O)[C@H](CCC(=O)O)NC(=O)C(C)(C)NC(=O)[C@@H](N)Cc1c[nH]cn1)[C@@H](C)O)[C@@H](C)O)C(=O)N[C@@H](CCC(N)=O)C(=O)N[C@@H](Cc1c[nH]c2ccccc12)C(=O)N[C@@H](CC(C)C)C(=O)N[C@H](C(N)=O)C(C)C [compound 190] (H-H[Aib]EGTFTSDWSFLLEGAALQRFIQWLV-NH2) | – | 260000 | – | – | 0.61 | – | – | – | 100 nM | 0.0631 nM | 1844
4 | CC(C)C[C@H](NC(=O)[C@H](Cc1ccccc1)NC(=O)[C@H](CCCNC(=N)N)NC(=O)[C@H](CCC(N)=O)NC(=O)[C@H](CC(C)C)NC(=O)C(C)(C)NC(=O)[C@H](C)NC(=O)[C@H](CCC(=O)O)NC(=O)[C@H](CCC(=O)O)NC(=O)C(C)(C)NC(=O)[C@H](CC(C)C)NC(=O)[C@H](Cc1ccc(O)cc1)NC(=O)[C@H](CO)NC(=O)[C@@H](NC(=O)[C@H](CC(=O)O)NC(=O)[C@H](CO)NC(=O)[C@@H](NC(=O)[C@H](Cc1ccccc1)NC(=O)[C@@H](NC(=O)CNC(=O)[C@H](CCC(=O)O)NC(=O)C(C)(C)NC(=O)[C@@H](N)Cc1c[nH]cn1)[C@@H](C)O)[C@@H](C)O)C(C)C)C(=O)N[C@@H](CCC(=O)O)C(=O)N[C@@H](CCCCNC(=O)COCCOCCNC(=O)COCCOCCNC(=O)CC[C@H](NC(=O)CCCCCCCCCCCCCCCCCCC(=O)O)C(=O)O)C(=O)N[C@@H](CC(C)C)C(=O)N[C@H](C(N)=O)C(C)C [compound 158] (H-H[Aib]EGTFTSDVSYL[Aib]EEA[Aib]LQRFLEK([AEEA-AEEA-γGlu-C20 diacid])LV-NH2) | 1580 nM | 4465 | 0.0398 nM | 41049 | 0.08 | – | – | – | – | – | –
5 | CC[C@H](C)[C@H](NC(=O)[C@H](Cc1ccccc1)NC(=O)[C@H](CCCNC(=N)N)NC(=O)[C@H](CCC(N)=O)NC(=O)[C@H](CC(C)C)NC(=O)[C@H](C)NC(=O)[C@H](C)NC(=O)CNC(=O)[C@H](CCC(=O)O)NC(=O)[C@H](CC(C)C)NC(=O)[C@H](CC(C)C)NC(=O)[C@@H](NC(=O)[C@H](CO)NC(=O)[C@H](Cc1ccc(O)cc1)NC(=O)[C@H](CC(=O)O)NC(=O)[C@H](CO)NC(=O)[C@@H](NC(=O)[C@H](Cc1ccccc1)NC(=O)[C@@H](NC(=O)CNC(=O)[C@H](CCC(=O)O)NC(=O)C(C)(C)NC(=O)[C@@H](N)Cc1c[nH]cn1)[C@@H](C)O)[C@@H](C)O)C(C)C)C(=O)N[C@@H](CCC(N)=O)C(=O)N[C@@H](Cc1c[nH]c2ccccc12)C(=O)N[C@@H](CC(C)C)C(=O)N[C@H](C(N)=O)C(C)C [compound 198] (H-H[Aib]EGTFTSDYSVLLEGAALQRFIQWLV-NH2) | – | 257659 | – | – | 0.33 | – | – | – | 5.01 nM | 0.0251 nM | 185
6 | CC(C)C[C@H](NC(=O)[C@H](Cc1ccccc1)NC(=O)[C@H](CCCNC(=N)N)NC(=O)[C@H](CCC(N)=O)NC(=O)[C@H](C)NC(=O)[C@H](C)NC(=O)[C@H](C)NC(=O)[C@H](CCC(=O)O)NC(=O)[C@H](CCC(=O)O)NC(=O)[C@H](CCCCNC(=O)COCCOCCNC(=O)COCCOCCNC(=O)CC[C@H](NC(=O)CCCCCCCCCCCCCCCCCCC(=O)O)C(=O)O)NC(=O)[C@H](CC(C)C)NC(=O)[C@H](Cc1ccccc1)NC(=O)[C@H](CO)NC(=O)[C@@H](NC(=O)[C@H](CC(=O)O)NC(=O)[C@H](CO)NC(=O)[C@@H](NC(=O)[C@H](Cc1ccccc1)NC(=O)[C@@H](NC(=O)CNC(=O)[C@H](CCC(=O)O)NC(=O)C(C)(C)NC(=O)[C@@H](N)Cc1c[nH]cn1)[C@@H](C)O)[C@@H](C)O)C(C)C)C(=O)N[C@@H](CCC(=O)O)C(=O)N[C@@H](Cc1c[nH]cn1)C(=O)N[C@@H](CC(C)C)C(=O)N[C@H](C(N)=O)C(C)C [compound 63] (H-H[Aib]EGTFTSDVSFLK([AEEA-AEEA-γGlu-C20 diacid])EEAAAQRFLEHLV-NH2) | – | 9044 | – | – | 0.09 | 10000 nM | 201002 | 0.0501 nM | – | – | –
7 | CC[C@H](C)[C@H](NC(=O)[C@H](Cc1ccccc1)NC(=O)[C@H](CCCNC(=N)N)NC(=O)[C@H](CCC(N)=O)NC(=O)[C@H](CC(C)C)NC(=O)[C@H](C)NC(=O)[C@H](C)NC(=O)CNC(=O)[C@H](CCC(=O)O)NC(=O)[C@H](CC(C)C)NC(=O)[C@H](CC(C)C)NC(=O)[C@@H](NC(=O)[C@H](CO)NC(=O)C(C)(C)NC(=O)[C@H](CC(=O)O)NC(=O)[C@H](CO)NC(=O)[C@@H](NC(=O)[C@H](Cc1ccccc1)NC(=O)[C@@H](NC(=O)CNC(=O)[C@H](CCC(=O)O)NC(=O)C(C)(C)NC(=O)[C@@H](N)Cc1c[nH]cn1)[C@@H](C)O)[C@@H](C)O)C(C)C)C(=O)N[C@@H](CCC(N)=O)C(=O)N[C@@H](Cc1c[nH]c2ccccc12)C(=O)N[C@@H](CC(C)C)C(=O)N[C@H](C(N)=O)C(C)C [compound 110] (H-H[Aib]EGTFTSD[Aib]SVLLEGAALQRFIQWLV-NH2) | 2000 nM | 3449 | 0.2 nM | 10257 | 0.15 | – | – | – | – | – | –
